# Assay results as given in patent US11697650B2, “Compounds having tetrahydroindolizine-1-carboxamide as BCL-2 inhibitors” (Eil Therapeutics, Inc., priority 2021, dated 2023).
# Legend:
# MOLT-4 cells = experiment: Cell viability assay (CellTiter-Glo), MOLT-4; assay type: cell-based; conditions: Homo sapiens, 72 h, 3 days, read-out: MOLT-4 (CC50 code)
# Summary of the method: (§1)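 HEK293 cells in DMEM at 2000/well, plated a day before dosing; RS4-11 and MOLT-4 in RPMI-1640 at 4000/well. Compounds diluted from 200× DMSO stocks through medium into wells, then incubated 3 days at 37 °C. Viability read by CellTiter-Glo luminescence.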
# MCL-1 = MCL-1 (Homo sapiens (Human), UniProt Q07820); experiment: MCL-1 TR-FRET Assay (primary PPI inhibition); assay type: binding; conditions: 60 min incubation; read-out: MCL1 IC50
# Experimental: MCL-1 TR-FRET Assay (BPS Bioscience, #79506)
# The following assay concentrations and times were used: 10 ng MCL-1, 5 μl of 1:200 anti-His Tb-labeled donor, 5 μl of 1:200 Dye-labeled acceptor, 5 μl of 1:10 MCL-1 Peptide Ligand, and 2 μl of test compound, with 60 min incubation time. The results of the assay were read using a Clariostar (BMG Labtech) plate reader with the following parameters: TR FRET, 340ex/620 and 665em; 60 μsec Delay; and 500 μsec integration.
# BCL-XL = BCL-XL (Homo sapiens (Human), UniProt Q07817); experiment: BCL-XL TR-FRET Assay (primary PPI inhibition); assay type: binding; conditions: 60 min incubation; read-out: BCLxL (IC50 code, BCL-XL TR-FRET)
# Summary of the method: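 TR-FRET displacement of a dye-labelled BCL-XL peptide ligand from His-tagged BCL-XL (10.5 ng) detected with a Tb-labelled anti-His donor. Incubation ran 60 min with test compound. Readout used 340 nm excitation and 620/665 nm emission with a 60 µs delay.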
# BCL-2 = BCL-2 (Homo sapiens (Human), UniProt P10415); experiment: BCL-2 TR-FRET Assay (primary PPI inhibition); assay type: binding; conditions: 60 min incubation; read-out: BCL2 (IC50 code, BCL-2 TR-FRET)
# Summary of the method: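 Mixture of 3 ng BCL-2, anti-His Tb donor, dye-labeled acceptor and BCL-2 peptide ligand, incubated 60 min with test compound. TR-FRET read at 340 nm excitation, 620/665 nm emission, 60 µs delay, 500 µs integration.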
# [1] = Cell viability assay (CellTiter-Glo), HEK293; assay type: cell-based; conditions: human, HEK293 cells, read-out: HEK293 (CC50 code)
# Summary of the method: as §1
# [2] = test system: caspase-3 and -7 activities in RS4-11 cells; experiment: Caspase-3/7 activation (Caspase-Glo 3/7) in RS4-11 cells; assay type: cell-based; conditions: Homo sapiens, 3.5 h incubation, read-out: Cas-3/7 (EC50 code)
# Summary of the method: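 RS4-11 cells exposed to varying compound concentrations for 3.5 h at 37 °C, 5% CO2, then 30 min at r.t. Caspase-Glo 3/7 reagent (luminogenic DEVD substrate) added, 30 min at r.t., luminescence read.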
# RS4-11 cells = experiment: Cell viability assay (CellTiter-Glo), RS4-11; assay type: cell-based; conditions: Homo sapiens, 72 h, 3 days, read-out: RS4-11 (CC50 code)
# Summary of the method: as §1
# BCL-XL, sequence (Q07817 whole entry): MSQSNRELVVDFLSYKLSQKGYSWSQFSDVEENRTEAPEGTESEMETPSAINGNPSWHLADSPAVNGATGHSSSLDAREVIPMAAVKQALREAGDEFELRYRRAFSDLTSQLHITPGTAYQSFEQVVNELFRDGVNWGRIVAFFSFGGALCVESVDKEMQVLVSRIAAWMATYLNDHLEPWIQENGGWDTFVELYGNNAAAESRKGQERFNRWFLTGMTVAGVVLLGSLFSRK
# BCL-2, sequence (P10415 whole entry): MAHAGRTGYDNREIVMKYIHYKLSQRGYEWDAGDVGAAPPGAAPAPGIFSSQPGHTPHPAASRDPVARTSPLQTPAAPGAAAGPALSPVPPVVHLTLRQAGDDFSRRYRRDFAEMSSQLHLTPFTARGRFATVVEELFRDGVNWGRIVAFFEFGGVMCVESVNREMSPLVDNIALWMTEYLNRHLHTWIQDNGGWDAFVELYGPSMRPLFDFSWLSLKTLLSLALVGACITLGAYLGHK
# MCL-1, sequence (Q07820 whole entry): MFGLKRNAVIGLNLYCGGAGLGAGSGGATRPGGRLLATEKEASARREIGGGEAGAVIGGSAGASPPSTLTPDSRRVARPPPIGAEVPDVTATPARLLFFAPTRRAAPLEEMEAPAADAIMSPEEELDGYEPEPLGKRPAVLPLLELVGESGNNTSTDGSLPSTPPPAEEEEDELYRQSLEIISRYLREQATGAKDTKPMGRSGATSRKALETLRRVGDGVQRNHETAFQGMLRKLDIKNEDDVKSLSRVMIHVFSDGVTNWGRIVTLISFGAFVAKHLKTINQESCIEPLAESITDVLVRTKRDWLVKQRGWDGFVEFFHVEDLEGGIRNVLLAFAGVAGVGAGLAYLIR
Structure (SMILES),CC50 (MOLT-4 cells) [µM],IC50 (MCL-1) [µM],IC50 (BCL-XL) [nM],IC50 (BCL-2) [nM],CC50 at 3 days [1] [µM],EC50 [2] [nM],CC50 (RS4-11 cells) [nM]
"COCCNC(=O)c1ccc(CN(C(=O)c2cc(-c3cc4c(cc3C(=O)N3Cc5ccccc5C[C@H]3CN3CCOCC3)OCO4)n3c2CCCC3)c2ccc(O)cc2)cc1 [Compound 1, N-(4-hydroxyphenyl)-N-{4-[(2-methoxyethyl)carbamoyl]benzyl}-3-(6-{[(3S)-3-(morpholin-4-ylmethyl)-3,4-dihydroisoquinolin-2(1H)-yl]carbonyl}-1,3-benzodioxol-5-yl)-5,6,7,8-tetrahydroindolizine-1-carboxamide]",2 to 10,> 100,≤ 2000,≤ 5,≤ 10,≤ 100,≤ 100
"COCCNC(=O)c1cccc(CN(C(=O)c2cc(-c3cc4c(cc3C(=O)N3Cc5ccccc5C[C@H]3CN3CCOCC3)OCO4)n3c2CCCC3)c2ccc(O)cc2)c1 [Compound 2, N-(4-hydroxyphenyl)-N-{3-[(2-methoxyethyl)carbamoyl]benzyl}-3-(6-{[(3S)-3-(morpholin-4-ylmethyl)-3,4-dihydroisoquinolin-2(1H)-yl]carbonyl}-1,3-benzodioxol-5-yl)-5,6,7,8-tetrahydroindolizine-1-carboxamide]",> 10,> 100,–,≤ 5,≤ 10,> 250,100 to 200
"CN(C)CCNC(=O)c1cccc(CN(C(=O)c2cc(-c3cc4c(cc3C(=O)N3Cc5ccccc5C[C@H]3CN3CCOCC3)OCO4)n3c2CCCC3)c2ccc(O)cc2)c1 [Compound 6, N-(3-{[2-(dimethylamino)ethyl]carbamoyl}benzyl)-N-(4-hydroxyphenyl)-3-(6-{[(3S)-3-(morpholin-4-ylmethyl)-3,4-dihydroisoquinolin-2(1H)-yl]carbonyl}-1,3-benzodioxol-5-yl)-5,6,7,8-tetrahydroindolizine-1-carboxamide]",> 10,> 100,–,≤ 5,10 to 25,> 250,> 200
"NC(=O)c1cccc(CN(C(=O)c2cc(-c3cc4c(cc3C(=O)N3Cc5ccccc5C[C@H]3CN3CCOCC3)OCO4)n3c2CCCC3)c2ccc(O)cc2)c1 [Compound 7, N-(3-carbamoylbenzyl)-N-(4-hydroxyphenyl)-3-(6-{[(3S)-3-(morpholin-4-ylmethyl)-3,4-dihydroisoquinolin-2(1H)-yl]carbonyl}-1,3-benzodioxol-5-yl)-5,6,7,8-tetrahydroindolizine-1-carboxamide]",2 to 10,> 100,≤ 2000,≤ 5,≤ 10,100 to 250,100 to 200
"CN(C)CCNC(=O)c1ccc(CN(C(=O)c2cc(-c3cc4c(cc3C(=O)N3Cc5ccccc5C[C@H]3CN3CCOCC3)OCO4)n3c2CCCC3)c2ccc(O)cc2)cc1 [Compound 8, N-(4-{[2-(dimethylamino)ethyl]carbamoyl}benzyl)-N-(4-hydroxyphenyl)-3-(6-{[(3S)-3-(morpholin-4-ylmethyl)-3,4-dihydroisoquinolin-2(1H)-yl]carbonyl}-1,3-benzodioxol-5-yl)-5,6,7,8-tetrahydroindolizine-1-carboxamide]",> 10,> 100,≤ 2000,≤ 5,> 25,≤ 100,≤ 100
"CN1CCN(C(=O)c2cccc(CN(C(=O)c3cc(-c4cc5c(cc4C(=O)N4Cc6ccccc6C[C@H]4CN4CCOCC4)OCO5)n4c3CCCC4)c3ccc(O)cc3)c2)CC1 [Compound 10, N-(4-hydroxyphenyl)-N-{3-[(4-methylpiperazin-1-yl)carbonyl]benzyl}-3-(6-{[(3S)-3-(morpholin-4-ylmethyl)-3,4-dihydroisoquinolin-2(1H)-yl]carbonyl}-1,3-benzodioxol-5-yl)-5,6,7,8-tetrahydroindolizine-1-carboxamide]",> 10,> 100,–,5 to 10,10 to 25,> 250,> 200
"CN1CCN(C(=O)c2ccc(CN(C(=O)c3cc(-c4cc5c(cc4C(=O)N4Cc6ccccc6C[C@H]4CN4CCOCC4)OCO5)n4c3CCCC4)c3ccc(O)cc3)cc2)CC1 [Compound 12, N-(4-hydroxyphenyl)-N-{4-[(4-methylpiperazin-1-yl)carbonyl]benzyl}-3-(6-{[(3S)-3-(morpholin-4-ylmethyl)-3,4-dihydroisoquinolin-2(1H)-yl]carbonyl}-1,3-benzodioxol-5-yl)-5,6,7,8-tetrahydroindolizine-1-carboxamide]",> 10,> 100,≤ 2000,5 to 10,10 to 25,≤ 100,≤ 100
"NC(=O)c1ccc(CN(C(=O)c2cc(-c3cc4c(cc3C(=O)N3Cc5ccccc5C[C@H]3CN3CCOCC3)OCO4)n3c2CCCC3)c2ccc(O)cc2)cc1 [Compound 13, N-(4-carbamoylbenzyl)-N-(4-hydroxyphenyl)-3-(6-{[(3S)-3-(morpholin-4-ylmethyl)-3,4-dihydroisoquinolin-2(1H)-yl]carbonyl}-1,3-benzodioxol-5-yl)-5,6,7,8-tetrahydroindolizine-1-carboxamide]",2 to 10,> 100,≤ 2000,5 to 10,10 to 25,≤ 100,≤ 100
"Cn1cnnc1CN(C(=O)c1cc(-c2cc3c(cc2C(=O)N2Cc4ccccc4C[C@H]2CN2CCOCC2)OCO3)n2c1CCCC2)c1ccc(O)cc1 [Compound 48, N-(4-Hydroxyphenyl)-N-[(4-methyl-1,2,4-triazol-3-yl)methyl]-3-[6-[(3S)-3-(morpholinomethyl)-3,4-dihydro-1H-isoquinoline-2-carbonyl]-1,3-benzodioxol-5-yl]-5,6,7,8-tetrahydroindolizine-1-carboxamide]",2 to 10,–,≤ 2000,≤ 5,10 to 25,≤ 100,≤ 100
"Cc1c(CN(C(=O)c2cc(-c3cc4c(cc3C(=O)N3Cc5ccccc5C[C@H]3CN3CCOCC3)OCO4)n3c2CCCC3)c2ccc(O)cc2)cccc1[N+](=O)[O-] [Compound 50, N-(4-Hydroxyphenyl)-N-[(2-methyl-3-nitro-phenyl)methyl]-3-[6-[(3S)-3-(morpholinomethyl)-3,4-dihydro-1H-isoquinoline-2-carbonyl]-1,3-benzodioxol-5-yl]-5,6,7,8-tetrahydroindolizine-1-carboxamide]",2 to 10,–,> 4000,> 50,> 25,> 250,> 200
